Literature values, collected in patent US20090035369A1, “Composition and Methods for Treating and Preventing Age-Related Macular Degeneration” (priority 2006, published 2009).

Experiments:
[1] = pure DIM
[2] = pure DIM; remark: listed apart in the source
neovascularization = details: rodent model

Question: Which results are given for c1ccc2c(Cc3c[nH]c4ccccc34)c[nH]c2c1 [DIM, 3,3′-diindolylmethane]?
Answer: solubility [1]: insoluble; absorption by the human body [2]: poorly absorbed; inhibition of neovascularization (neovascularization): up to 76%
